Some test systems named below: HOP-62 NSCLC; K-562 leukemia; NCI-H226 lung; NCI-H23 lung; NCI-H460 lung; OVCAR-5 ovarian; SNB-75 CNS; U251 CNS; UACC-62 melanoma; MALME-3M melanoma.
Common to all, as to assay: DTP human tumour cell line panel, 48 h

The structures appear in SMILES notation.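 Five compound concentrations were applied to cells in 96-well plates for 48 hours; endpoints were derived by simple linear interpolation of the resulting dose-response curve. At the GI50, growth is halved. TGI denotes the concentration required for complete inhibition of growth.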 Where only a bound is given, the exact number is not on record here.

What is called TGI is the concentration giving total growth inhibition. Low readings indicate more potent growth arrest, high ones less potent growth arrest. `Cc1ccc2c(c1)NC(c1ccc(C(=O)O)cc1)c1cccn1-2` (centres undefined): the TGI was 58.6 µM in the assay on HOP-62 NSCLC; more than 100 µM in the assay on K-562 leukemia; more than 100 µM in the assay on NCI-H226 lung; more than 100 µM with NCI-H23 lung; more than 100 µM in the assay with NCI-H460 lung; more than 100 µM in the assay on OVCAR-5 ovarian. The total growth inhibition concentration (TGI) with SNB-75 CNS is 39.6 µM; in the assay with U251 CNS it was more than 100 µM; in the assay on UACC-62 melanoma, more than 100 µM.
`O=S(=O)(c1ccc(NC(=S)N/N=C/c2ccccc2O)cc1)N1CCCCC1`: the total growth inhibition concentration (TGI) in the assay on HOP-62 NSCLC is 4.45 µM; in the assay on MALME-3M melanoma, 1.43 µM; in the assay on NCI-H226 lung, 0.803 µM; in the assay with NCI-H23 lung, 6.94 µM; in the assay on OVCAR-5 ovarian, 18.3 µM; in the assay with SNB-75 CNS, more than 65.2 µM. Further, the TGI in the assay with U251 CNS was 16.8 µM; with UACC-62 melanoma, 0.262 µM.
Usually GI50 stands for the concentration at which growth is held to half of that of the control. As to `COc1cccc(NC(=O)c2sc3nc4c(cc3c2N)CCCC4)c1`, the GI50 is 0.59 µM with HOP-62 NSCLC; 2.6 µM with NCI-H226 lung; 0.813 µM in the assay with NCI-H23 lung; 0.474 µM in the assay with NCI-H460 lung; 3.31 µM with OVCAR-5 ovarian; 0.271 µM in the assay with SNB-75 CNS. Moreover, the figures for the GI50 in the assay on U251 CNS and in the assay with UACC-62 melanoma were 0.607 µM and 0.391 µM, respectively. The total growth inhibition concentration (TGI) in the assay with HOP-62 NSCLC was 18.2 µM; with NCI-H226 lung, 43.8 µM; in the assay on NCI-H23 lung, more than 100 µM; with NCI-H460 lung it was more than 100 µM; in the assay on OVCAR-5 ovarian, more than 100 µM; with SNB-75 CNS it was 2.77 µM. Besides, the TGI with U251 CNS was 19.2 µM; in the assay on UACC-62 melanoma, more than 100 µM.
Turning to `ClC(=Nc1cccc2ccccc12)N(c1ccccc1)c1ccccc1`, the concentration for total growth inhibition (TGI) in the assay on HOP-62 NSCLC was more than 100 µM; in the assay on K-562 leukemia it was more than 100 µM; in the assay with MALME-3M melanoma it was more than 100 µM; in the assay on NCI-H23 lung it was more than 100 µM; with NCI-H460 lung, 90.8 µM; with OVCAR-5 ovarian, more than 100 µM. The TGI with SNB-75 CNS, with U251 CNS and in the assay with UACC-62 melanoma was more than 100 µM each time.
`COc1cc2c3c(n(C)c(=O)c2cc1OC)-c1cc2c(cc1/C3=C\CCCCN)OCO2`: the GI50 was 6.22 µM with K-562 leukemia; 3.84 µM with NCI-H23 lung; 5.02 µM with NCI-H460 lung; 15.5 µM with OVCAR-5 ovarian; 3.54 µM in the assay with SNB-75 CNS; 6.04 µM with U251 CNS. Further, the GI50 with UACC-62 melanoma is 12.5 µM. The total growth inhibition concentration (TGI) is more than 100 µM in the assay on K-562 leukemia; 15.3 µM in the assay on NCI-H23 lung; more than 100 µM with NCI-H460 lung; 35.4 µM in the assay with OVCAR-5 ovarian; 7.12 µM in the assay with SNB-75 CNS; 21.6 µM in the assay on U251 CNS. In addition, in the assay with UACC-62 melanoma, the total growth inhibition concentration (TGI) was determined as 37.8 µM.
Regarding `O=C1C2=C(c3ccccc31)C(c1ccc(Cl)cc1)N1C(=O)CCSC1=N2` (centres undefined), the TGI in the assay with HOP-62 NSCLC, in the assay with K-562 leukemia, with MALME-3M melanoma, in the assay on NCI-H226 lung, in the assay on NCI-H23 lung and in the assay with OVCAR-5 ovarian was more than 100 µM each time. Moreover, the concentration for total growth inhibition (TGI) in the assay on SNB-75 CNS, with U251 CNS and in the assay on UACC-62 melanoma was more than 100 µM each time.
In the case of `CC12OC(C(=O)C13CC3)C1C(=O)c3ccccc3C(=O)C12` (centres undefined), the GI50 in the assay with HOP-62 NSCLC is 27.8 µM; in the assay on K-562 leukemia, 36.8 µM; in the assay on MALME-3M melanoma, 27.9 µM; in the assay with NCI-H23 lung, 29.5 µM; in the assay with NCI-H460 lung, 29.9 µM; with OVCAR-5 ovarian, 47.4 µM. Further, the GI50 in the assay with SNB-75 CNS is 77.5 µM. In addition, the total growth inhibition concentration (TGI) in the assay on HOP-62 NSCLC was 80 µM; with K-562 leukemia, more than 100 µM; with MALME-3M melanoma it was 87.1 µM; in the assay on NCI-H23 lung it was more than 100 µM; with NCI-H460 lung, more than 100 µM; with OVCAR-5 ovarian, more than 100 µM. Further, the TGI in the assay on SNB-75 CNS was more than 100 µM.
With `COC(=O)Nc1nc2ccc(C(=O)c3ccc[nH]3)cc2[nH]1`, the TGI in the assay on HOP-62 NSCLC was more than 95.9 µM; with MALME-3M melanoma, more than 31.3 µM; in the assay with NCI-H23 lung, more than 100 µM; in the assay with NCI-H460 lung it was more than 100 µM; in the assay with OVCAR-5 ovarian, more than 100 µM; with SNB-75 CNS it was 1.69 µM. Further, the TGI with U251 CNS and in the assay with UACC-62 melanoma was more than 100 µM each time.
Take `Cc1cc(C)nc(NS(=O)(=O)c2ccc(Nc3c4ccccc4nc4c(C(=O)Nc5ccc(S(N)(=O)=O)cc5)cccc34)cc2)n1`: the total growth inhibition concentration (TGI) with HOP-62 NSCLC, in the assay on K-562 leukemia, in the assay on MALME-3M melanoma, in the assay on NCI-H23 lung, with NCI-H460 lung and with OVCAR-5 ovarian was more than 100 µM in each case. Besides, the figures for the TGI in the assay on SNB-75 CNS, with U251 CNS and in the assay with UACC-62 melanoma were 88.4 µM, more than 100 µM and more than 100 µM, respectively.
For `C1CCC([PH+](C2CCCCC2)C2CCCCC2[PH+](C2CCCCC2)C2CCCCC2)CC1.[Au].[CH-]1CCCCC1C1CCCC[N-]1` (centres undefined), the GI50 with HOP-62 NSCLC is 0.314 µM; with K-562 leukemia, 0.229 µM; in the assay on MALME-3M melanoma it was 0.208 µM; with OVCAR-5 ovarian it was 0.377 µM; with SNB-75 CNS, 0.194 µM; in the assay on UACC-62 melanoma it was 0.254 µM. In addition, the total growth inhibition concentration (TGI) in the assay with HOP-62 NSCLC is 1.89 µM; in the assay on K-562 leukemia, more than 100 µM; in the assay with MALME-3M melanoma it was 0.844 µM; in the assay on OVCAR-5 ovarian, 1.79 µM; in the assay with SNB-75 CNS, 0.833 µM; in the assay on UACC-62 melanoma, 0.979 µM.
Turning to `COc1c(OC(C)=O)ccc(/C=C2\N=C(C)OC2=O)c1[N+](=O)[O-]`, the concentration for total growth inhibition (TGI) in the assay on HOP-62 NSCLC, with K-562 leukemia, in the assay on MALME-3M melanoma, with NCI-H460 lung, with OVCAR-5 ovarian and with SNB-75 CNS was more than 100 µM each time. Further, the TGI with U251 CNS and in the assay with UACC-62 melanoma was more than 100 µM in each case.
As to `NC(N)=NS(=O)(=O)c1ccc(NC(=O)c2cccc3c(Nc4ccc(S(=O)(=O)N=C(N)N)cc4)c4ccc(Cl)cc4nc23)cc1`, the TGI in the assay on HOP-62 NSCLC, in the assay with K-562 leukemia, with MALME-3M melanoma, with NCI-H23 lung, in the assay with NCI-H460 lung and in the assay with OVCAR-5 ovarian was more than 100 µM throughout. The total growth inhibition concentration (TGI) in the assay on SNB-75 CNS, in the assay with U251 CNS and in the assay with UACC-62 melanoma was more than 100 µM in each case.
Turning to `COc1cc2c(cc1OC)C(=O)C(Br)CC2` (centres undefined), the GI50 is 6.09 µM in the assay with HOP-62 NSCLC; 3.96 µM with K-562 leukemia; 3.31 µM with MALME-3M melanoma; 2.89 µM in the assay on NCI-H23 lung; 4.27 µM in the assay on NCI-H460 lung; 5.47 µM in the assay on OVCAR-5 ovarian. Besides, the GI50 in the assay on SNB-75 CNS was 5.27 µM; with U251 CNS, 12.8 µM; in the assay on UACC-62 melanoma it was 2.01 µM. For the same molecule, the TGI in the assay on HOP-62 NSCLC was 18.5 µM; in the assay with K-562 leukemia it was more than 100 µM; with MALME-3M melanoma it was 8.18 µM; in the assay with NCI-H23 lung, 10.9 µM; in the assay with NCI-H460 lung, 16.9 µM; with OVCAR-5 ovarian, 18.2 µM. Moreover, the results for the TGI in the assay on SNB-75 CNS, with U251 CNS and in the assay with UACC-62 melanoma were 18.9 µM, 25.7 µM and 4.55 µM, respectively.
Take `O/N=C1/C(=C/c2ccc(F)cc2)CCCC1C(NO)c1ccc(F)cc1` (centres undefined): the concentration for total growth inhibition (TGI) was more than 100 µM in the assay on HOP-62 NSCLC; more than 100 µM in the assay on K-562 leukemia; more than 100 µM in the assay with MALME-3M melanoma; 51.7 µM in the assay on NCI-H23 lung; more than 100 µM in the assay on NCI-H460 lung; more than 100 µM in the assay with SNB-75 CNS. The TGI in the assay with U251 CNS and in the assay with UACC-62 melanoma was more than 100 µM each time.
For `NC(N)=NC(CC(=O)O)c1ccccc1` (centres undefined), the concentration for total growth inhibition (TGI) in the assay with HOP-62 NSCLC, in the assay with K-562 leukemia, in the assay on MALME-3M melanoma, in the assay on NCI-H23 lung, in the assay on NCI-H460 lung and in the assay with OVCAR-5 ovarian was more than 100 µM in each case. Besides, the total growth inhibition concentration (TGI) with SNB-75 CNS, with U251 CNS and in the assay with UACC-62 melanoma was more than 100 µM in each case.
In the case of `COc1ccc(-c2oc3cc(O)c(OC)c(O)c3c(=O)c2OC2OC(CO)C(O)C(O)C2O)cc1` (centres undefined), the TGI in the assay with K-562 leukemia, in the assay on NCI-H23 lung, in the assay on NCI-H460 lung, in the assay with SNB-75 CNS, with U251 CNS and in the assay with UACC-62 melanoma was more than 100 µM each time.
Take `N#Cc1ccccc1NC(=O)C(=O)C(C(=O)c1ccccc1-c1ccccc1)C1OC(=O)c2ccccc21` (centres undefined): the total growth inhibition concentration (TGI) was 25.1 µM with HOP-62 NSCLC; more than 100 µM in the assay on K-562 leukemia; 26.8 µM in the assay on MALME-3M melanoma; 26.1 µM in the assay with NCI-H23 lung; 40.4 µM in the assay with NCI-H460 lung; 33 µM in the assay on OVCAR-5 ovarian. Further, the values for the concentration for total growth inhibition (TGI) in the assay with SNB-75 CNS, in the assay on U251 CNS and with UACC-62 melanoma were 29.9 µM, 25.6 µM and 33.8 µM, respectively.
As for `Nc1ccn(C=C=CCO)c(=O)n1`, the GI50 in the assay on HOP-62 NSCLC, in the assay on K-562 leukemia, with MALME-3M melanoma, with NCI-H226 lung, in the assay on NCI-H23 lung and with OVCAR-5 ovarian was more than 1000 µM throughout. Moreover, the GI50 with SNB-75 CNS, in the assay with U251 CNS and in the assay with UACC-62 melanoma was more than 1000 µM each time. The concentration for total growth inhibition (TGI) in the assay with HOP-62 NSCLC, in the assay on K-562 leukemia, with MALME-3M melanoma, with NCI-H226 lung, in the assay with NCI-H23 lung and with OVCAR-5 ovarian was more than 1000 µM throughout. Moreover, the TGI in the assay with SNB-75 CNS, in the assay with U251 CNS and with UACC-62 melanoma was more than 1000 µM in each case.
For `CCOC(=O)Cc1c(Cc2[nH]c(C(=O)OCc3ccccc3)c(CC(=O)OCC)c2CC(=O)OCC)[nH]c(C(=O)OCc2ccccc2)c1CC(=O)OCC`, the concentration for total growth inhibition (TGI) in the assay on HOP-62 NSCLC, in the assay with K-562 leukemia, in the assay with MALME-3M melanoma, in the assay on SNB-75 CNS, with U251 CNS and in the assay on UACC-62 melanoma was more than 100 µM each time.

The values above are taken from PubChem BioAssay (NCI).
